{"source": "patent US10918687B2", "about": "“Kava derived therapeutic compounds and methods of use thereof” (KUALITY HERBCEUTICS LLC, priority 2013, dated 2021)", "key": {"[1]": {"test_system": "NNK-induced DNA damage in liver tissues", "test": "NNK-induced DNA damage in A/J mouse liver tissues", "format": "in vivo, A/J mice", "conditions": "diet Day 1-Day 7, 24 h after NNK; data not shown", "method": "DNA was isolated and purified from ˜100 mg lung and liver tissues of each mouse, following Genomic-tip 100/G protocol from Qiagen Corp (Valencia, Calif.).\n(§1) After one-week acclimation, A/J mice were weighed and randomized into ten groups (3 mice per group except for Group 1 that had one mouse as the negative control) and switched to the AIN-93 G diet on a date defined as Day 1. Mice in Groups 1 and 2 were given the AIN-93 G diet during Day 1-Day 7. Mice in Groups 3-10 were given the AIN-93 G diets supplemented with kava, (+)-DHK, (+)-DHM, and synthetic (±)-DHM respectively at the specified dose during Day 1-Day 7. Mice in Groups 2-10 were given a single dose of NNK at 100 mg/kg bodyweight in saline (0.1 ml) via i.p. injection at the beginning of Day 7 while the mouse in Group 1 was given saline (0.1 ml). Mice were euthanized by CO2 overdosing 24 h after NNK treatment, and lung and liver tissues were collected and stored at −80° C. until DNA isolation. A set of NNK-induced DNA adducts (O^6-mG, 7-mG, 7-pobG, O^6-pobdG, O^2-pobdT, 7-phbG, O^6-phbdG and O^2-phbdT) were quantified by following reported procedures (Leitzman, P et al. (2014) Cancer. Prev. Res., 7: 86-96; Peterson, L A et al. (2013) Chem. Res. Toxicol. 26: 1464-1473; Upadhyaya, P et al. (2008) Chem. Res. Toxicol. 21: 1468-1476). For 7-mG isolation, DNA (30 μg) was dissolved in 10 mM sodium phosphate buffer, pH 7 (500 μL) and spiked with [^13C1^2H3]7-mG (10 pmol). Samples were heated to 80° C. for 30 minutes. An aliquot (100 μL) was removed for 7-mG analysis."}, "[2]": {"test_system": "NNK-induced lung tumorigenesis", "test": "NNK-induced lung adenoma formation in A/J mice", "format": "in vivo", "conditions": "Example 4, Day 119", "method": "Female A/J mice, 5-6 weeks of age from the Jackson Laboratory (Bar Harbor, Me.), were handled according to animal welfare protocols approved by IACUC at the University of Minnesota. […] After one-week acclimation, mice were weighed, randomized into different groups and switched to AIN-93G-powdered diet, defined as Day 1. The number of mice in each group was specified in the Result Section. On Day 7 and Day 14, mice in the negative control groups received 0.1 mL physiological saline solution while mice in the other groups received NNK (100 and 67 mg/kg respectively in 0.1 mL of physiological saline solution) via i.p. injection. At the end of Day 21, mice were switched to AIN-93M-powdered diet until the end of the study. Diet consumption was measured twice weekly and bodyweight was monitored weekly. All mice were euthanized with an overdose of carbon dioxide. The lungs were collected and tumors on the surface of the lung were counted.\nData on lung adenoma multiplicity were reported as mean±SD (n=5-40). […] For Experiment 2, unpaired t-test was used for comparison between NNK control and kava treatment groups. Two-sided p-value≤0.05 was considered statistically significant. Data on DNA adducts were reported as mean±SD (n=3). For the time-course study, unpaired […] was used for comparisons between NNK control and kava treatment groups. Two-sided p-value≤0.05 was considered statistically significant: *p<0.05, **p<0.01, and ***p<0.001. For the 24-h time point study, one-way ANOVA was used to compare means.\nAfter one-week acclimation, mice were weighed, randomized into eight groups and switched to the AIN-93 G diet on a date defined as Day 1. The number of mice in each group is specified in the Results Section (FIG. 36). Mice were fed diets supplemented with different compounds at the dose specified in the Results Section during Day 1-Day 14. On Day 7 and Day 14, mice in the negative control group received 0.1 mL of saline solution while mice in the other groups received NNK (100 and 67 mg/kg, respectively, in 0.1 mL of saline solution) via i.p. injection. At the end of Day 21, mice were switched to the AIN-93 M diet until the end of the study. The diet was replenished twice weekly. The diet consumption was measured twice weekly and the bodyweight was monitored weekly. This study was terminated at the end of Day 119. All mice were euthanized with CO2 overdosing."}, "[3]": {"test_system": "NNK-induced DNA adducts in lung tissues", "test": "NNK-induced DNA adducts in A/J mouse lung tissues (LC-ESI-MS/MS)", "format": "in vivo, A/J mice", "conditions": "24 h after NNK", "source_text": "DNA was isolated from the whole lung tissue of each individual mouse following Puregene DNA isolation protocol (Qiagen Corp, Valencia, Calif.) (Urban et al., Chem Res Toxicol 2012; 25:2167-78). 7-pobG, O^2-pobdT, O^6-pobdG, and O^6-mG were quantified by LC-ESI-MS/MS, following established protocols (Urban et al., Chem Res Toxicol 2012; 25:2167-78; Peterson et al., Cancer Res 1991; 51:5557-64).\nAfter one-week acclimation, A/J mice were weighed and randomized into seven groups (3 mice per group) and switched to the AIN-93 G diet on a date defined as Day 1. Mice in Groups 1 and 2 were given the AIN-93 G diet during Day 1-Day 7. Mice in Groups 3-7 were given the AIN-93 G diet supplemented with desmethoxyyangonin, (+)-DHK, (+)-kavain, (+)-DHM, or (+)-methysticin respectively, at a dose of 1 mg/g of diet during Day 1-Day 7. Mice in Groups 2-7 were given a single dose of NNK at 100 mg/kg bodyweight in saline (0.1 ml) via intraperitoneal (i.p.) injection at the beginning of Day 7 while mice in Group 1 were given saline (0.1 ml). Mice were euthanized by CO2 overdosing 24 h after NNK treatment, and lung tissues were collected and stored at −80° C. until DNA isolation. A number of NNK-induced DNA modifications (O^6-mG, 7-pobG, O^6-pobdG and O^2-pobdT) were quantified by following a reported procedure (Leitzman, P et al. (2014) Cancer. Prev. Res., 7: 86-96).\nas §1"}, "[4]": {"test_system": "APAP-induced hepatotoxicity", "test": "Short-term combination study: potentiation of APAP-induced hepatotoxicity in C57BL/6 mice", "text": "Six week-old female C57BL/6J mice (Jackson Laboratories, ME) were housed at specific pathogen-free animal facilities of Research Animal Resources, University of Minnesota with free access to standard rodent food and water. All mice were acclimatized for one week before being used for experiments. Mice were gavaged with dose formulations at the indicated doses and times, euthanized by CO2 overdosing with necropsy performed by experienced researchers.\nThe short-term combination studies were designed to evaluate the potential synergism of kava and its chemicals to APAP induced hepatotoxicity. C57BL/6 mice were randomized (8-15 mice per group) and were administered with PEG-400 (200 μL), kava (500 mg/kg bodyweight), DHM or FKA and FKB in PEG-400 (200 μL) at the indicated doses daily via oral gavage for two days. On the third day, mice in the respective groups were co-administered with APAP (800 mg/kg bodyweight) in PEG-400 (200 μL). Bodyweight was recorded daily. Necropsies were performed 24 hours after the last gavage by experienced researchers. Serum from each mouse was analyzed for ALT and AST. Livers were collected and preserved in 10% neutral buffered formalin. Appropriately fixed tissues were processed into paraffin blocks using standard histological techniques, and 5 μm sections were cut and stained with hematoxylin and eosin (H&E).\nThe clinical chemistry data were reported as mean±SD (n=4-15). […] One-way analysis of variance (ANOVA) was used to compare the means among different groups in the short-term combination studies. Dunnett's test was used for comparisons of APAP and other treatment groups when the one-way ANOVA analysis was statistically significant. p-value≤0.05 was considered statistically significant. All analyses were conducted in GraphPad Prism 4 (GraphPad Software, Inc. La Jolla, Calif.)."}}, "data": [{"smiles": "COC1=CC(=O)O[C@@H](CCc2ccc3c(c2)OCO3)C1", "note": "(racemic) [(±)-DHM, (±)-dihydromethysticin]", "values": [{"measurement": "effect on NNK-induced DNA damage in the liver tissues", "setting": "[1]", "value": "none of the treatments had significant effects"}, {"measurement": "lung adenoma formation (incidence and multiplicity)", "setting": "[2]; 0.5 mg/g of diet Day 1-Day 14", "value": "adenoma free"}]}, {"smiles": "COC1=CC(=O)O[C@@H](CCc2ccccc2)C1", "note": "[(+)-DHK, (+)-dihydrokavain]", "values": [{"measurement": "effect on NNK-induced DNA damage in the liver tissues", "setting": "[1]", "value": "none of the treatments had significant effects"}, {"measurement": "effect on O^6-mG and POB adducts", "setting": "[3]; 1 mg/g of diet", "value": "did not reduce any of these adducts"}, {"measurement": "lung adenoma formation (incidence and multiplicity)", "setting": "[2]; 0.05 mg/g of diet Day 1-Day 14", "value": "no reduction at all"}, {"measurement": "lung adenoma formation (incidence and multiplicity)", "setting": "[2]; 0.5 mg/g of diet Day 1-Day 14", "value": "no reduction at all"}]}, {"smiles": "COC1=CC(=O)O[C@@H](/C=C/c2ccc3c(c2)OCO3)C1", "note": "[(+)-methysticin]", "values": [{"measurement": "effect on NNK-induced O^6-mG", "setting": "[3]; isolated kavalactones 1 mg/g of diet Day 1-Day 7", "value": "significantly reduced"}]}, {"smiles": "CC(=O)Nc1ccc(O)cc1", "note": "[APAP, acetaminophen, reference compound]", "values": [{"measurement": "serum ALT and AST activities", "setting": "[4]; APAP alone 800 mg/kg bodyweight via gavage", "value": "significantly increased"}, {"measurement": "liver lesions", "setting": "[4]; APAP alone 800 mg/kg, lesions graded 0 to 4", "value": "evenly distributed among different severity categories"}]}]}
